Consider 36 compounds from US10294243B2, “Bicyclic compounds as pesticides” (BAYER CROPSCIENCE AKTIENGESELLSCHAFT, priority 2014, dated 2019).

Read-outs that look alike come from different tables or passages of the source.

One series relates to Myzus persicae. Nature of the series: Myzus persicae - spray test (Chinese cabbage leaf discs). The series is classed as in vivo. To be noted: application rate 500 g/ha, after 6 days; for pest or weed control at 500 g/ha: Myzus persicae, foliar, 144 h, read-out: efficacy (aphids killed). The protocol: Myzus persicae—Spray Test
Solvent: 78 parts by weight of acetone • • 1.5 parts by weight of dimethylformamide
Emulsifier: alkylaryl polyglycol ether
To produce further test concentrations, the preparation is diluted with emulsifier-containing water.
After 6 days, the efficacy in % is determined 100% means that all the aphids have been killed; 0% means that none of the aphids have been killed.

The nature of series [1]: log P by HPLC on reversed-phase C18 columns (OECD Guideline 117); method [a] acidic pH 2.7, method [b] neutral pH 7.8. The series is classed as physicochemical. Conditions: for chromatographic logP: reversed-phase C18 HPLC column.
[2] abbreviates: HPLC reversed-phase C18, method [a] acidic pH 2.7, read-out: logP[a].
Where [3] appears, read: HPLC reversed-phase C18, method [b] neutral pH 7.8, read-out: logP[b].
Where [4] appears, read: HPLC reversed-phase C18, method [a] acidic pH 2.7.
[5] abbreviates: HPLC reversed-phase C18, method [b] neutral pH 7.8.

`Cc1cc(F)c(-n2cnc3nc(-c4cccnc4)sc3c2=O)cc1SCC(F)(F)F` [Compound 21, 6-{2-Fluoro-4-methyl-5-[(2,2,2-trifluoroethyl)sulphanyl]phenyl}-2-(pyridin-3-yl)[1,3]thiazolo[4,5-d]pyrimidin-7(6H)-one]: the pest or weed control at 500 g/ha in the series on Myzus persicae was found to be 90%. Further, the chromatographic logP came to 2.95 in series [1] (setting [2]) and 2.91 in series [1] (setting [3]).

Turning to `CCSc1ccccc1-n1cnc2nc(-c3cccnc3)sc2c1=O` [Compound 66], in the series on Myzus persicae, the “efficacy (aphids killed)” value came out at 100%. The “logP[a]” value in series [1] (setting [4]) is listed as 2.20. In addition, the “logP[b]” value in series [1] (setting [5]) turned out to be 2.21.

As to `CN(C)C(=O)CSc1cccc(-n2cnc3nc(-c4cccnc4)sc3c2=O)c1` [Compound 52], the “efficacy (aphids killed)” value in the series on Myzus persicae was 90%. For the same compound, in series [1] (setting [4]), the “logP[a]” value was 1.57. Besides, in series [1] (setting [5]), the “logP[b]” value is reported as 1.55.

On to `Cc1ccc(-n2cnc3nc(-c4cncnc4)sc3c2=O)cc1` [Compound 75], for which the “logP[a]” value in series [1] (setting [4]) amounted to 1.80. In addition, the “logP[b]” value in series [1] (setting [5]) is reported as 1.72.

`O=c1c2sc(-c3cccnc3)nc2ncn1Cc1cccnc1` [Compound 35]: the “efficacy (aphids killed)” value in the series on Myzus persicae worked out at 100%. In addition, the “logP[b]” value in series [1] (setting [5]) is listed as 0.72.

As for `Cc1cc(F)c(-n2nnc3nc(-c4cccnc4)sc3c2=O)cc1[S+]([O-])CC(F)(F)F` (centres unmarked) [Compound 59, 3-{2-Fluoro-4-methyl-5-[(2,2,2-trifluoroethyl)sulphinyl]phenyl}-6-(pyridin-3-yl)[1,3]thiazolo[4,5-d][1,2,3]triazin-4(3H)-one], the pest or weed control at 500 g/ha in the series on Myzus persicae was 90%. Also, the chromatographic logP in series [1] (setting [2]) was determined as 2.4; in series [1] (setting [3]), 2.35.

Take `CN(C)C(=O)c1cc2cc(-n3cnc4nc(-c5cccnc5)sc4c3=O)ccc2s1` [Compound 65]: the “logP[a]” value in series [1] (setting [4]) is listed as 1.70. The “logP[b]” value in series [1] (setting [5]) is given as 1.70.

With `Cc1cc(C)c(-n2cnc3nc(-c4cncc(F)c4)sc3c2=O)cc1SCC(F)(F)F` [Compound 71], in the series on Myzus persicae, the “efficacy (aphids killed)” value came to 90%. Also, the “logP[a]” value in series [1] (setting [4]) turned out to be 3.64. Also, in series [1] (setting [5]), the “logP[b]” value was found to be 3.34.

Regarding `CC(C)[S+]([O-])c1cccc(-n2cnc3nc(-c4cccnc4)sc3c2=O)c1` (centres unmarked) [Compound 25], in the series with Myzus persicae, the “efficacy (aphids killed)” value amounted to 90%. The “logP[a]” value in series [1] (setting [4]) came out at 1.39. Also, in series [1] (setting [5]), the “logP[b]” value was 1.43.

Consider `O=c1c2sc(-c3cccnc3)nc2ncn1-c1ccc(F)c(SC(F)(F)F)c1` [Compound 17], for which the “efficacy (aphids killed)” value in the series on Myzus persicae came to 90%. For the same compound, in series [1] (setting [4]), the “logP[a]” value was 2.70. Also, the “logP[b]” value in series [1] (setting [5]) worked out at 2.66.

In the case of `CSc1cc(-n2cnc3nc(-c4cccnc4)sc3c2=O)ccc1C` [Compound 15], the “efficacy (aphids killed)” value in the series on Myzus persicae is 100%. Moreover, the “logP[a]” value in series [1] (setting [4]) came out at 2.42. Besides, in series [1] (setting [5]), the “logP[b]” value is 2.35.

Take `O=c1c2sc(-c3cccnc3)nc2ncn1-c1cc(SCC(F)(F)F)ccc1F` [Compound 46]: the “efficacy (aphids killed)” value with Myzus persicae was found to be 90%. In series [1] (setting [4]), the “logP[a]” value is recorded as 2.60. The “logP[b]” value in series [1] (setting [5]) came to 2.56.

As to `O=c1c2sc(-c3cccnc3)nc2ncn1CC(F)F` [Compound 4], the “efficacy (aphids killed)” value in the series on Myzus persicae turned out to be 100%. For the same compound, in series [1] (setting [4]), the “logP[a]” value is 1.19.

As for `O=c1c2sc(-c3cccnc3)nc2ncn1CC(F)(F)C(F)F` [Compound 6], the “efficacy (aphids killed)” value in the series on Myzus persicae was 90%. The “logP[a]” value in series [1] (setting [4]) is on record as 1.57.

On to `CC[S+]([O-])c1ccc(-n2cnc3nc(-c4cccnc4)sc3c2=O)cc1` (centres unmarked) [Compound 61], for which the “efficacy (aphids killed)” value with Myzus persicae stood at 100%. Besides, the “logP[a]” value in series [1] (setting [4]) was found to be 1.10. In addition, the “logP[b]” value in series [1] (setting [5]) stood at 1.22.

In the case of `Cc1cccc(-n2cnc3nc(-c4cccnc4)sc3c2=O)c1` [Compound 8], the “efficacy (aphids killed)” value with Myzus persicae is 90%. In series [1] (setting [4]), the “logP[a]” value came to 1.94. The “logP[b]” value in series [1] (setting [5]) is 1.94.

Take `CCSc1ccc(-n2cnc3nc(-c4cccnc4)sc3c2=O)cc1` [Compound 60]: the “efficacy (aphids killed)” value with Myzus persicae is reported as 100%. In series [1] (setting [4]), the “logP[a]” value worked out at 2.41. Moreover, in series [1] (setting [5]), the “logP[b]” value worked out at 2.45.

In the case of `CC(C)n1cnc2nc(-c3cccnc3)sc2c1=O` [Compound 1, 6-Isopropyl-2-(pyridin-3-yl)[1,3]thiazolo[4,5-d]pyrimidin-7(6H)-one], the pest or weed control at 500 g/ha with Myzus persicae turned out to be 100%. Further, the chromatographic logP in series [1] (setting [2]) turned out to be 1.35; in series [1] (setting [3]), 1.43.

In the case of `Cc1cc(F)c(-n2nnc3nc(-c4cccnc4)sc3c2=O)cc1SCC(F)(F)F` [Compound 58, 3-{2-Fluoro-4-methyl-5-[(2,2,2-trifluoroethyl)sulphanyl]phenyl}-6-(pyridin-3-yl)[1,3]thiazolo[4,5-d][1,2,3]triazin-4(3H)-one], the pest or weed control at 500 g/ha in the series with Myzus persicae is 90%. Further, the chromatographic logP in series [1] (setting [2]) was 3.45; in series [1] (setting [3]), 3.32.

On to `CSc1cc(-n2cnc3nc(-c4cncc(F)c4)sc3c2=O)ccc1C` [Compound 70], for which, in the series with Myzus persicae, the “efficacy (aphids killed)” value was 100%. For the same compound, the “logP[a]” value in series [1] (setting [4]) amounted to 2.82. For the same compound, in series [1] (setting [5]), the “logP[b]” value turned out to be 2.75.

Regarding `O=c1c2sc(-c3cccnc3)nc2ncn1Cc1ccccn1` [Compound 34, 2-(Pyridin-3-yl)-6-(pyridin-2-ylmethyl)[1,3]thiazolo[4,5-d]pyrimidin-7(6H)-one], the pest or weed control at 500 g/ha in the series on Myzus persicae came to 100%. Further, in series [1] (setting [2]), the chromatographic logP was 1.09.

Turning to `O=c1c2sc(-c3cccnc3)nc2ncn1-c1ccccc1F` [Compound 40], the “efficacy (aphids killed)” value with Myzus persicae is reported as 100%. Also, the “logP[a]” value in series [1] (setting [4]) is given as 1.70. Further, the “logP[b]” value in series [1] (setting [5]) is 1.69.

Turning to `CC(C)Sc1cccc(-n2cnc3nc(-c4cccnc4)sc3c2=O)c1` [Compound 24], the “efficacy (aphids killed)” value with Myzus persicae is listed as 90%. Besides, in series [1] (setting [4]), the “logP[a]” value was determined as 2.76. Moreover, the “logP[b]” value in series [1] (setting [5]) is reported as 2.70.

Turning to `COc1ccc(-n2cnc3nc(-c4cccnc4)sc3c2=O)cc1` [Compound 12], the “efficacy (aphids killed)” value in the series with Myzus persicae was 90%. The “logP[a]” value in series [1] (setting [4]) worked out at 1.73. In addition, the “logP[b]” value in series [1] (setting [5]) came out at 1.76.

As for `O=c1c2sc(-c3cccnc3)nc2ncn1-c1cccc(OCC(F)(F)F)c1` [Compound 41], the “efficacy (aphids killed)” value in the series with Myzus persicae is on record as 90%. Moreover, the “logP[a]” value in series [1] (setting [4]) stood at 2.33. Also, in series [1] (setting [5]), the “logP[b]” value is reported as 2.34.

As to `CC(C)CSc1cccc(-n2cnc3nc(-c4cccnc4)sc3c2=O)c1` [Compound 26], the “efficacy (aphids killed)” value in the series with Myzus persicae amounted to 90%. Further, the “logP[a]” value in series [1] (setting [4]) amounted to 3.18. In addition, the “logP[b]” value in series [1] (setting [5]) came out at 3.08.

Turning to `Cc1cc(C)c(-n2cnc3nc(-c4cncnc4)sc3c2=O)cc1SCC(F)(F)F` [Compound 76, 6-{2,4-Dimethyl-5-[(2,2,2-trifluoroethyl)sulphanyl]phenyl}-2-(pyrimidin-5-yl)[1,3]thiazolo[4,5-d]pyrimidin-7(6H)-one], the pest or weed control at 500 g/ha in the series on Myzus persicae was found to be 90%. The chromatographic logP stood at 2.88 in series [1] (setting [2]) and 2.77 in series [1] (setting [3]).

In the case of `CN(C)C(=O)Cn1cnc2nc(-c3cccnc3)sc2c1=O` [Compound 7], in the series with Myzus persicae, the “efficacy (aphids killed)” value is given as 100%. The “logP[a]” value in series [1] (setting [4]) is 0.65.

As for `C[S+]([O-])c1cccc(-n2cnc3nc(-c4cccnc4)sc3c2=O)c1` (centres unmarked) [Compound 14], the “efficacy (aphids killed)” value with Myzus persicae amounted to 90%. In addition, in series [1] (setting [4]), the “logP[a]” value is 1.04. For the same compound, the “logP[b]” value in series [1] (setting [5]) came out at 1.09.

In the case of `Cc1cc(F)c(-n2cnc3nc(-c4cccnc4)sc3c2=O)cc1SCC(=O)N(C)C` [Compound 54, 2-({4-Fluoro-2-methyl-5-[7-oxo-2-(pyridin-3-yl)[1,3]thiazolo[4,5-d]pyrimidin-6(7H)-yl]phenyl}sulphanyl)-N,N-dimethylacetamide], the pest or weed control at 500 g/ha in the series on Myzus persicae amounted to 100%. The chromatographic logP in series [1] (setting [2]) turned out to be 1.9; in series [1] (setting [3]) it was 1.91.

`O=c1c2sc(-c3cccnc3)nc2ncn1-c1ccccc1SCC(F)(F)F` [Compound 68, 2-(Pyridin-3-yl)-6-{2-[(2,2,2-trifluoroethyl)sulphanyl]phenyl}[1,3]thiazolo[4,5-d]pyrimidin-7(6H)-one]: the chromatographic logP in series [1] (setting [2]) is 2.34; in series [1] (setting [3]) it was 2.29.

As to `O=c1c2sc(-c3cccnc3)nc2ncn1Cc1cccc(C(F)(F)F)c1` [Compound 28, 2-(Pyridin-3-yl)-6-[3-(trifluoromethyl)benzyl][1,3]thiazolo[4,5-d]pyrimidin-7(6H)-one], the chromatographic logP was determined as 2.47 in series [1] (setting [2]) and 2.43 in series [1] (setting [3]).

Consider `O=c1c2sc(-c3cccnc3)nc2ncn1-c1ccccc1[S+]([O-])CC(F)(F)F` (centres unmarked) [Compound 69, 2-(Pyridin-3-yl)-6-{2-[(2,2,2-trifluoroethyl)sulphinyl]phenyl}[1,3]thiazolo[4,5-d]pyrimidin-7(6H)-one], for which the chromatographic logP in series [1] (setting [2]) amounted to 1.74; in series [1] (setting [3]) it was 1.75.

With `Cc1nc(Cn2cnc3nc(-c4cccnc4)sc3c2=O)cs1` [Compound 38, 6-[(2-Methyl-1,3-thiazol-4-yl)methyl]-2-(pyridin-3-yl)[1,3]thiazolo[4,5-d]pyrimidin-7(6H)-one], the chromatographic logP in series [1] (setting [2]) came out at 1.36; in series [1] (setting [3]), 1.42.

`COc1cccc(Cn2cnc3nc(-c4cccnc4)sc3c2=O)c1` [Compound 32]: the “logP[a]” value in series [1] (setting [4]) turned out to be 1.91. Also, the “logP[b]” value in series [1] (setting [5]) amounted to 1.92.

As to `CN(C)S(=O)(=O)c1cccc(-n2cnc3nc(-c4cccnc4)sc3c2=O)c1` [Compound 42, N,N-Dimethyl-3-[7-oxo-2-(pyridin-3-yl)[1,3]thiazolo[4,5-d]pyrimidin-6(7H)-yl]benzenesulphonamide], the results for the chromatographic logP in series [1] (setting [2]) and in series [1] (setting [3]) were 1.63 and 1.72, respectively.
